We go through 29 compounds from US6787670B1, “Glyoxyl acid amides, method for producing them and their use for controlling harmful organisms” (priority 1999, dated 2004).

What all share (assay type): in vivo
For one test, the system named is Phytophthora infestans. The test can be described thus: whole plant or invertebrate. As to conditions: 100% = no infection; for efficacy in %: tomato plants, protective spray, application rate 50 g/ha, evaluation 3 days after inoculation; for pest or weed control at 50 g/ha: Phytophthora infestans, in Solanum lycopersicum, 72 h, read-out: efficacy in %, tomato plants, protective spray, application rate 50 g/ha, evaluation 3 days after inoculation.

For the next test, the system named is Alternaria solani. Put plainly: Alternaria test (tomato)/protective. As to conditions: tomato plants, protective spray, application rate 750 g/ha, evaluation 3 days after inoculation; 100% = no infection.
A further test has as its system Plasmopara viticola. Put plainly: Plasmopara test (grapevine)/protective. As to conditions: 144 h.
[1] abbreviates: read-out: efficacy in %, grapevine plants, protective spray, application rate 50 g/ha, evaluation 6 days after inoculation, 100% = no infection.
[2] abbreviates: grapevine plants, protective spray, application rate 50 g/ha, evaluation 6 days after inoculation, 100% = no infection, read-out: efficacy in %.

Read-outs that look alike come from different tables or passages of the source.

Description for Alternaria solani: Alternaria Test (Tomato)/Protective
Solvent: 50 parts by weight of N,N-dimethylformamide
Emulsifier: 1.2 parts by weight of alkylaryl polyglycol ether
One day after the treatment, the plants are inoculated with a spore suspension of Alternaria solani. The plants then stand at 100% rel. atmospheric humidity and a temperature of 20° C.
Evaluation is carried out 3 days after the inoculation.

Compound `COCCOc1ccc(CCNC(=O)/C(=N/OC)c2ccc3c(c2)CCCC3)cc1OC` [Example 3] returned an efficacy in % in the test on Phytophthora infestans of 92%.
`CO/N=C(\C(=O)NCCc1ccc(OCC(C)C)c(OC)c1)c1ccc2c(c1)CCCC2` [Example 45]: in the test on Alternaria solani, the efficacy in % amounted to 95%.
Turning to `CCCCOc1ccc(CCNC(=O)/C(=N\OC)c2ccc3c(c2)CCCC3)cc1OC` [Example 48], in the test on Alternaria solani, the efficacy in % worked out at 95%.
In the case of `CO/N=C(\C(=O)NCCc1ccc(OCC(C)C)c(OC)c1)c1ccc2c(c1)CCCC2` [Example 49], the efficacy in % in the test with Alternaria solani was determined as 90%.
Compound `C=CCOc1ccc(CCNC(=O)/C(=N\OC)c2ccc(Br)cc2)cc1OC` [Example 52] showed an efficacy in % in the test on Phytophthora infestans of 100%.
On to `CCOc1cc(CCNC(=O)/C(=N\OC)c2ccc3c(c2)CCCC3)ccc1OC` [Example 52], for which the pest or weed control at 50 g/ha with Plasmopara viticola (read-out: efficacy in %) was 93%.
For the compound `C=CCOc1ccc(CCNC(=O)/C(=N\OC)c2ccc3c(c2)CCCC3)cc1OC` [Example 57], the pest or weed control at 50 g/ha in the test on Phytophthora infestans amounted to 99%.
In the case of `CCC(=O)COc1ccc(CCNC(=O)/C(=N\OC)c2ccc3c(c2)CCCC3)cc1OC` [Example 60], the pest or weed control at 50 g/ha with Phytophthora infestans was 89%.
For the compound `CCc1ccc(/C(=N/OC)C(=O)NCCc2ccc(OC(C)C)c(OC)c2)cc1` [Example 60], the pest or weed control at 50 g/ha in the test on Phytophthora infestans was not below 89%; with Plasmopara viticola (setting [1]), not below 83%.
With `COCCOc1ccc(CCNC(=O)/C(=N\OC)c2ccc(Cl)cc2)cc1OC` [Example 60], the pest or weed control at 50 g/ha in the test on Plasmopara viticola (setting [2]) was determined as 96%.
As to `CCCOc1ccc(CCNC(=O)/C(=N\OC)c2ccc(Br)cc2)cc1OC` [Example 61], in the test with Phytophthora infestans, the pest or weed control at 50 g/ha was 94%.
As for `CO/N=C(\C(=O)NCCc1ccc(OC(C)C)c(OC)c1)c1ccc2c(c1)CCCC2` [Example 61], the pest or weed control at 50 g/ha in the test on Phytophthora infestans is not below 89%.
Still for that read-out and setting: the value for `CCC(C)Oc1ccc(CCNC(=O)/C(=N\OC)c2ccc(Cl)cc2)cc1OC` (stereo not shown) [Example 62] was 89%.
As for `C=CCOc1ccc(CCNC(=O)/C(=N\OC)c2ccc(Br)cc2)cc1OC` [Example 63], in the test on Plasmopara viticola (read-out: efficacy in %), the pest or weed control at 50 g/ha was 99%.
Turning to `CO/N=C(\C(=O)NCCc1ccc(OC(C)C)c(OC)c1)c1ccc2c(c1)CCCC2` [Example 63], in the test with Phytophthora infestans (listed as drawing 53), the efficacy in % is on record as 94%.
As to `CCC(C)Oc1ccc(CCNC(=O)/C(=N\OC)c2ccc3c(c2)CCC3)cc1OC` (stereo not shown) [Example 65], in the test with Phytophthora infestans, the pest or weed control at 50 g/ha stood at 94%.
For `COCCOc1ccc(CCNC(=O)/C(=N\OC)c2ccc3c(c2)CCCC3)cc1OC` [Example 65], the pest or weed control at 50 g/ha in the test on Plasmopara viticola (read-out: efficacy in %) turned out to be 93%.
On to `CCC(=O)COc1ccc(CCNC(=O)/C(=N\OC)c2ccc3c(c2)CCCC3)cc1OC` [Example 100], for which, in the test with Plasmopara viticola (setting [2]), the pest or weed control at 50 g/ha was 94%.
Take `CCOc1cc(CCNC(=O)/C(=N\OC)c2ccc3c(c2)CCCC3)ccc1OC` [Example 100]: the pest or weed control at 50 g/ha in the test with Plasmopara viticola (setting [1]) is not below 83%.
`CO/N=C(\C(=O)NCCc1ccc(OC(C)C)c(OC)c1)c1ccc(C)cc1` [Example 107]: in the test with Phytophthora infestans, the pest or weed control at 50 g/ha turned out to be 95%.
For the compound `COCCOc1ccc(CCNC(=O)/C(=N/OC)c2ccc3c(c2)CCCC3)cc1OC` [Example 107], the pest or weed control at 50 g/ha in the test with Phytophthora infestans is not below 89%.
For `CCC(C)Oc1ccc(CCNC(=O)/C(=N\OC)c2ccc(Cl)cc2)cc1OC` (stereo not shown) [Example 111], the pest or weed control at 50 g/ha in the test with Plasmopara viticola (setting [2]) is 83%.
Still for that read-out and setting: the value for `CCC(C)Oc1ccc(CCNC(=O)/C(=N\OC)c2ccc3c(c2)CCC3)cc1OC` (stereo not shown) [Example 113] was 94%.
Regarding `CCc1ccc(/C(=N/OC)C(=O)NCCc2ccc(OC(C)C)c(OC)c2)cc1` [Example 113], in the test on Phytophthora infestans, the efficacy in % is given as 94%.
Take `C=CCOc1ccc(CCNC(=O)/C(=N\OC)c2ccc(Br)cc2)cc1OC` [Example 115]: the pest or weed control at 50 g/ha was not below 89% in the test on Phytophthora infestans and not below 83% with Plasmopara viticola (setting [1]).
`CCc1ccc(/C(=N/OC)C(=O)NCCc2ccc(OC(C)C)c(OC)c2)cc1` [Example 115]: the pest or weed control at 50 g/ha in the test with Plasmopara viticola (read-out: efficacy in %) turned out to be 87%.
As to `CO/N=C(\C(=O)NCCc1ccc(OC(C)C)c(OC)c1)c1ccc2c(c1)CCC2` [Example 115], the pest or weed control at 50 g/ha in the test with Phytophthora infestans was 94%.
With `CO/N=C(\C(=O)NCCc1ccc(OC(C)C)c(OC)c1)c1ccc2c(c1)CCC2` [Example 116], the pest or weed control at 50 g/ha with Plasmopara viticola (setting [2]) is 100%.
In the test on Phytophthora infestans (listed as drawing 58), `CO/N=C(\C(=O)NCCc1ccc(OC(C)C)c(OC)c1)c1ccc2c(c1)CCCC2` [Example 116] displayed an efficacy in % of 94%.
